Results taken from patent US20220378923A1, “BET DEGRADER” (KYOWA KIRIN CO., LTD., priority 2019, published 2022).

Test system: MYC mRNA expression in SU-DHL-4 cells
Experiment: Suppressive effect on MYC mRNA expression (Test Example 2)
Assay type: cell-based, human
Conditions: test compound 100 nmol/L, 6 hours, qRT-PCR corrected by ACTB, GAPDH; for inhibition at 0.1 µM: Homo sapiens, HPRT1, read-out: Suppression Rate of MYC mRNA Expression (%); for Suppression Rate of MYC mRNA Expression (%): HPRT1
Summary of the method: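 SU-DHL-4 cells were treated for 6 h at 37 °C with compound (0.1% DMSO final). MYC mRNA was measured by TaqMan qRT-PCR and normalised to the geometric mean of ACTB, GAPDH and HPRT1. Suppression was calculated relative to untreated wells.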

**Q.** How did the inhibition at 0.1 µM turn out when `CCC(=O)N1c2ccccc2[C@H](Nc2ccc(NC(=O)CNC(=O)Nc3ccc(C4=NCc5nnc(C)n5-c5sc(C)c(C)c54)cc3)cc2)C[C@@H]1C` [Compound 14f, N-(4-(((2S,4R)-2-Methyl-1-propionyl-1,2,3,4-tetrahydroquinolin-4-yl)amino)phenyl)-2-(3-(4-(2,3,9-trimethyl-6H-thieno[3,2-f][1,2,4]triazolo[4,3-a][1,4]diazepin-4-yl)phenyl)ureido)acetamide] was run?
**A.** 97.3%

**Q.** For `Cc1sc2c(c1C)C(c1ccc(C(=O)N3CCC(NC(=O)c4ccc(C5=N[C@@H](CC(=O)OC(C)(C)C)c6nnc(C)n6-c6sc(C)c(C)c65)cc4)CC3)cc1)=NCc1nnc(C)n1-2` [Compound 14p, tert-Butyl (S)-2-(2,3,9-trimethyl-4-(4-((1-(4-(2,3,9-trimethyl-6H-thieno[3,2-f][1,2,4]triazolo[4,3-a][1,4]diazepin-4-yl)benzoyl)piperidin-4-yl)carbamoyl)phenyl)-6H-thieno[3,2-f][1,2,4]triazolo[4,3-a][1,4]diazepin-6-yl)acetate], which inhibition at 0.1 µM is on record?
**A.** 97.6%

**Q.** For `CCC(=O)N1c2ccccc2[C@H](Nc2ccc(NC(=O)CCCC(=O)Nc3ccc(Cn4c(C(=O)OCCN(C)C)cc5c4CCCC5=O)cc3)cc2)C[C@@H]1C` [Compound 15a, 2-(Dimethylamino)ethyl 1-(4-(5-((4-(((2S,4R)-2-methyl-1-propionyl-1,2,3,4-tetrahydroquinolin-4-yl)amino)phenyl)amino)-5-oxopentanamide)benzyl)-4-oxo-4,5,6,7-tetrahydro-1H-indole-2-carboxylate], which “Suppression Rate of MYC mRNA Expression (%)” value (“Suppression Rate … (%)” below) is on record?
**A.** 97.6%

**Q.** With `CCC(=O)N1c2ccccc2[C@H](Nc2ccc(-c3cnn(CCNC(=O)c4ccc(Cn5c(C(=O)OCCN(C)C)cc6c5CCCC6=O)cc4)c3)cc2)C[C@@H]1C` [Compound 15d, 2-(Dimethylamino)ethyl 1-(4-((2-(4-(4-(((2S,4R)-2-methyl-1-propionyl-1,2,3,4-tetrahydroquinolin-4-yl)amino)phenyl)-1H-pyrazol-1-yl)ethyl)carbamoyl)benzyl)-4-oxo-4,5,6,7-tetrahydro-1H-indole-2-carboxylate] as the molecule, how does the inhibition at 0.1 µM read?
**A.** 96.9%

**Q.** With `CCC(=O)N1c2ccccc2[C@H](Nc2ccc(-n3cc(CNC(=O)c4ccc(Cn5c(CC)cc6c5CCCC6=O)cc4)nn3)cc2)C[C@@H]1C` [Compound 15f, 4-((2-Ethyl-4-oxo-4,5,6,7-tetrahydro-1H-indol-1-yl)methyl)-N-((1-(4-(((2S,4R)-2-methyl-1-propionyl-1,2,3,4-tetrahydroquinolin-4-yl)amino)phenyl)-1H-1,2,3-triazol-4-yl)methyl)benzamide] as the molecule, how does the inhibition at 0.1 µM read?
**A.** 97.2%

**Q.** Which “Suppression Rate … (%)” value does the source give for `CCC(=O)N1c2ccccc2[C@H](Nc2ccc(NC(=O)CCCC(=O)Nc3cccc(Oc4ccc(NS(=O)(=O)CC)cc4-c4cn(C)c(=O)cc4OC)c3)cc2)C[C@@H]1C` [Compound 16j, N^1-(3-(4-(Ethylsulfonamide)-2-(4-methoxy-1-methyl-6-oxo-1,6-dihydropyridin-3-yl)phenoxy)phenyl)-N5-(4-(((2S,4R)-2-methyl-1-propionyl-1,2,3,4-tetrahydroquinolin-4-yl)amino)phenyl)glutaramide] here?
**A.** 92.4%

**Q.** With `CCC(=O)N1c2ccccc2[C@H](Nc2ccc(NC(=O)CCCC(=O)Nc3cccc(Oc4ccccc4-c4cn(C)c(=O)cc4OC)c3)cc2)C[C@@H]1C` [Compound 16m, N^1-(3-(2-(4-Methoxy-1-methyl-6-oxo-1,6-dihydropyridin-3-yl)phenoxy)phenyl)-N5-(4-(((2S,4R)-2-methyl-1-propionyl-1,2,3,4-tetrahydroquinolin-4-yl)amino)phenyl)glutaramide] as the molecule, how does the inhibition at 0.1 µM read?
**A.** 97.1%

**Q.** How did the inhibition at 0.1 µM turn out when `CCC(=O)N1c2ccccc2[C@H](Nc2ccc(NC(=O)CCCC(=O)Nc3ccc(C(=O)N4CCC(=O)Nc5ccccc54)cc3)cc2)C[C@@H]1C` [Compound 16o, N^1-(4-(((2S,4R)-2-Methyl-1-propionyl-1,2,3,4-tetrahydroquinolin-4-yl)amino)phenyl)-N5-(4-(4-oxo-2,3,4,5-tetra hydro-1H-benzo[b][1,4]diazepine-1-carbonyl)phenyl)glutaramide] was run?
**A.** 79.1%

**Q.** Which “Suppression Rate … (%)” value does the source give for `CCC(=O)N1c2ccccc2[C@H](Nc2ccc(NC(=O)CCCC(=O)NC3CCC(Cn4cc(-c5c(C)noc5C)ccc4=O)CC3)cc2)C[C@@H]1C` (stereo partly drawn) [Compound 16p, N^1-((1r,4r)-4-((5-(3,5-Dimethylisoxazol-4-yl)-2-oxopyridin-1(2H)-yl)methyl)cyclohexyl)-N5-(4-(((2S,4R)-2-methyl-1-propionyl-1,2,3,4-tetrahydroquinolin-4-yl)amino)phenyl)glutaramide] here?
**A.** 96.2%

**Q.** Which inhibition at 0.1 µM does the source give for `CCC(=O)N1c2ccccc2[C@H](Nc2ccc(NC(=O)CCCC(=O)Nc3ccc(Cn4cc(-c5c(C)noc5C)ccc4=O)cc3)cc2)C[C@@H]1C` [Compound 17a, N^1-(4-((5-(3,5-Dimethylisoxazol-4-yl)-2-oxopyridin-1(2H)-yl)methyl)phenyl)-N5-(4-(((2S,4R)-2-methyl-1-propionyl-1,2,3,4-tetrahydroquinolin-4-yl)amino)phenyl)glutaramide] here?
**A.** 96.2%

**Q.** For `CCNC(=O)C[C@@H]1N=C(c2ccc(SCCCCSc3ccc(C4=N[C@@H](CC(=O)NCC)c5nnc(C)n5-c5ccc(OC)cc54)cc3)cc2)c2cc(OC)ccc2-n2c(C)nnc21` [compound 1, 2,2′-((4S,4'S)-6,6′-((butane-1,4-diylbis(sulfanediyl))bis(4,1-phenylene))bis(8-methoxy-1-methyl-4H-benzo[f][1,2,4]triazolo[4,3-a][1,4]diazepine-6,4-diyl))bis(N-ethylacetamide), reference compound], which “Suppression Rate … (%)” value is on record?
**A.** 61.7%

**Q.** `Cc1sc2c(c1C)C(c1ccc(Cl)cc1)=N[C@@H](CC(=O)NCCOCCOCCOCCOCCOCCOCCOCCNC(=O)C[C@@H]1N=C(c3ccc(Cl)cc3)c3c(sc(C)c3C)-n3c(C)nnc31)c1nnc(C)n1-2` [compound 2, reference compound] was tested. Which “Suppression Rate … (%)” value did it give?
**A.** 57.7%
